Measured values from patent publication US6486149B2, “Composition comprising a crystallographically stable, amorphous cephalosporin and processes for the preparation thereof” (Meiji Seika Kaisha Ltd., priority 1998, dated 2002).
≈ marks a conversion by molar mass, not a printed value.

Assay: Solubility in acidic water (pH 1.2) at 37° C. (Test Example 1)
Assay type: physicochemical
Settings: acidic water (pH 1.2) containing HCl, simulated gastric fluid, thermodynamic from solid, acidic water (pH 1.2) containing about 1N HCl, stirred 2 hours, filtered through 1 μm membrane, read-out: solubility of Cefditoren pivoxil in acidic water
Method: The solid particles present in the composition of this invention were tested for the measurement of their water-solubility as shown in Test Example given hereinafter.
There was taken as a sample one gram of the yellow-colored powder (the composition of this invention), which was obtained in Example 6 above, and which consisted essentially of the particles as formed substantially from a homogeneous mixture comprising the amorphous substance of Cefditoren pivoxil and hydroxypropylmethyl cellulose, and in which the surface layer of said particles contained additionally hydroxypropyl cellulose. The sample so taken was placed in 250 ml of an acidic water (pH 1.2) containing about […] at 37° C. and stirred at 37° C. for 2 hours. The resulting aqueous solution was passed through a millipore (1 μm) membrane filter to remove the insoluble solid therefrom. The transparent aqueous solution here obtained, which contained Cefditoren pivoxil and the water-soluble cellulose derivatives above-mentioned as dissolved therein, was then measured in respect of the concentration of the Cefditoren pivoxil. […]

solubility at 2 h: ~400 µg/mL (≈ 644 µM)
Compound: CO/N=C(\C(=O)NC1C(=O)N2C(C(=O)OCOC(=O)C(C)(C)C)=C(/C=C\c3scnc3C)CS[C@H]12)c1csc(N)n1 (stereo partly shown) [7-[(Z)-2-(2-aminothiazol-4-yl)-2-methoxyiminoacetamido]-3-[(Z)-2-(4-methylthiazol-5-yl)ethenyl]-3-cephem-4-carboxylic acid pivaloyloxymethyl ester]
